Source: patent US20240368181A1, “QUINOXALINE DERIVATIVES AND USES THEREOF” (Black Diamond Therapeutics, Inc., priority 2021, published 2024)
pIC50: −log10 of the molar value.

How the values were obtained:
Format in all cases: cell-based
[1] = system: UM-UC-14 (FGFR3-S249C) cells; assay: Cell proliferation assay (CellTiterGlo), UM-UC-14 cells; conditions: UMUC14, 72 h, inhibition of cell growth, intracellular ATP (CellTiterGlo)
Source text: (§1) The following is a non-limiting example that describes a cell proliferation assay used to determine the biological activity of the compounds of the present disclosure. More specifically, the assay as used to assess the ability of the compounds to inhibit cell proliferation.
(§2) Briefly, SNU-16 (FGFR2-amplification) cells, were resuspended at 18,520c/ml mL in RPMI containing 10% Heat Inactivated FBS, 1% L-glutamine and dispensed in duplicate (463c/well) into 384 well plates. UM-UC-14 (FGFR3-S249C) cells were resuspended at 40.000c/ml mL in RPMI containing 10% Heat Inactivated FBS, 1% L-glutamine and dispensed in duplicate (1000c/well) into 384 well plates. DMS-114 (FGFR1 overexpression) cells and were resuspended at 40,000c/ml mL in RPMI containing 10% Heat Inactivated FBS, 1% L-glutamine and dispensed in duplicate (1000c/well) into 384 well plates. RT-112 (FGFR3-Tacc3 fusion) cells were resuspended at 40,000c/ml mL in RPMI containing 10% Heat Inactivated FBS, 1% L-glutamine and dispensed in duplicate (1000c/well) into 384 well plates. To determine the effect of the compounds of the present disclosure on cell proliferation, SNU-16, UM-UC-14, DMS-114 and RT112 cells were incubated for 72 hours in the presence of vehicle control (DMSO) or a compound of the present disclosure at varying concentrations. Inhibition of cell growth was subsequently determined by luminescent quantification (Envision by Perkin Elmer) of intracellular ATP content using CellTiterGlo (Promega), according to the protocol provided by the manufacturer. To determine the IC50 values, the vehicle-treated cells were normalized as viable cells and analyzed using the CDD Vault software (Collaborative Drug Discovery, Burlingame, CA).

[2] = system: DMS-114 (FGFR1 overexpression) cells; assay: Cell proliferation assay (CellTiterGlo), DMS-114 cells; conditions: Homo sapiens, 72 hours, inhibition of cell growth, intracellular ATP (CellTiterGlo)
Source text: as §1, §2

[3] = system: RT-112 (FGFR3-Tacc3 fusion) cells; assay: Cell proliferation assay (CellTiterGlo), RT-112 cells; conditions: Homo sapiens, RT-112, 72 h, RT112 cells, inhibition of cell growth, intracellular ATP (CellTiterGlo)
Source text: as §1, §2

[4] = system: SNU-16 (FGFR2-amplification) cells; assay: Cell proliferation assay (CellTiterGlo), SNU-16 cells; conditions: inhibition of cell growth, intracellular ATP (CellTiterGlo)
Source text: as §1, §2

Compound | pIC50 ([4]; Homo sapiens, SNU-16, 72 h) | pIC50 ([4]; 72 hours) | pIC50 [1] | pIC50 [2] | pIC50 [3]
Cc1nc2ccc(Oc3ccc4ncc(-c5cnn(CC6CCC(F)(F)CC6)c5)nc4c3Cl)cc2[nH]1 [Compound 9] | 7.00 to 7.70 |  | 7.00 to 7.70 | ≤ 6.40 | 7.00 to 7.70
Cc1nc2ccc(Oc3ccc4ncc(-c5cnn(CC6CCNC6)c5)nc4c3Cl)cc2[nH]1 (stereo not drawn) [Compound 10] | 7.00 to 7.70 |  | 6.40 to 7.00 | ≤ 6.40 | 7.00 to 7.70
Cc1nc2ccc(Oc3ccc4ncc(-c5cnn(CC6CCNCC6)c5)nc4c3Cl)cc2[nH]1 [Compound 11] |  | 7.00 to 7.70 | 6.40 to 7.00 | ≤ 6.40 | 7.00 to 7.70
Cc1nc2ccc(Oc3ccc4ncc(-c5cnn(CC6CCN(S(=O)(=O)C(F)F)CC6)c5)nc4c3Cl)cc2[nH]1 [Compound 12] | 7.00 to 7.70 |  | 7.00 to 7.70 | 6.40 to 7.00 | 7.00 to 7.70
Cc1nc2ccc(Oc3ccc4ncc(-c5cnn(CC6CCN(S(=O)(=O)CCO)CC6)c5)nc4c3Cl)cc2[nH]1 [Compound 13] | 7.00 to 7.70 |  | 7.00 to 7.70 | ≤ 6.40 | 7.00 to 7.70
Cc1nc2ccc(Oc3ccc4ncc(-c5cnn(CC6CCN(C)CC6)c5)nc4c3Cl)cc2[nH]1 [Compound 14] | > 7.70 |  | > 7.70 | 6.40 to 7.00 | > 7.70
Cc1nc2ccc(Oc3ccc4ncc(-c5cnn(CC6CNC6)c5)nc4c3Cl)cc2[nH]1 [Compound 16] | 6.40 to 7.00 |  | 6.40 to 7.00 | ≤ 6.40 | 6.40 to 7.00
Cc1nc2ccc(Oc3ccc4ncc(-c5cnn(CC6COC6)c5)nc4c3Cl)cc2[nH]1 [Compound 17] | ≤ 6.40 |  | ≤ 6.40 | ≤ 6.40 | ≤ 6.40
Cc1nc2ccc(Oc3ccc4ncc(-c5cnn(C)c5)nc4c3Cl)cc2[nH]1 [Compound 19] | 6.40 to 7.00 |  | 6.40 to 7.00 | ≤ 6.40 | 7.00 to 7.70
Cc1nc2ccc(Oc3ccc4ncc(-c5cnn(C6CCNCC6)c5)nc4c3Cl)cc2[nH]1 [Compound 21] | 7.00 to 7.70 |  | 7.00 to 7.70 | 6.40 to 7.00 | > 7.70
Cc1nc2ccc(Oc3ccc4ncc(-c5cnn(CC6CCN(C(C)C)CC6)c5)nc4c3Cl)cc2[nH]1 [Compound 24] | > 7.70 |  | > 7.70 | 6.40 to 7.00 | > 7.70
COC(=O)CS(=O)(=O)N1CCC(Cn2cc(-c3cnc4ccc(Oc5ccc6nc(C)[nH]c6c5)c(Cl)c4n3)cn2)CC1 [Compound 29] | ≤ 6.40 |  | ≤ 6.40 | ≤ 6.40 | 6.40 to 7.00
COCCN1CCC(Cn2cc(-c3cnc4ccc(Oc5ccc6nc(C)[nH]c6c5)c(Cl)c4n3)cn2)CC1 [Compound 30] | > 7.70 |  | > 7.70 | 6.40 to 7.00 | > 7.70
Cc1nc2ccc(Oc3ccc4ncc(-c5cnn(CC6CCN(C)CC6)c5C)nc4c3Cl)cc2[nH]1 [Compound 31] | 7.00 to 7.70 |  | 7.00 to 7.70 | 6.40 to 7.00 | 7.00 to 7.70
Cc1nc2ccc(Oc3ccc4ncc(-c5cnn(CC6CCN(C7COC7)CC6)c5)nc4c3Cl)cc2[nH]1 [Compound 35] | > 7.70 |  | 7.00 to 7.70 | ≤ 6.40 | > 7.70
Cc1nc2ccc(Oc3ccc4ncc(-c5cnn(CC6CCN(C)CC6)c5)nc4c3F)cc2[nH]1 [Compound 36] | 6.40 to 7.00 |  | 6.40 to 7.00 | ≤ 6.40 | 6.40 to 7.00
Cc1nc2ccc(Oc3ccc4ncc(-c5cnn(CC6CCN(S(=O)(=O)CC(C)C)CC6)c5)nc4c3Cl)cc2[nH]1 [Compound 37] | 7.00 to 7.70 |  | 7.00 to 7.70 | 6.40 to 7.00 | 7.00 to 7.70
C=CC(=O)N1CCC(Cn2cc(-c3cnc4ccc(Oc5ccc6nc(C)[nH]c6c5)c(Cl)c4n3)cn2)CC1 [Compound 38] | 7.00 to 7.70 |  | 7.00 to 7.70 | 6.40 to 7.00 | > 7.70
C=CC(=O)N1CCC(CCn2cc(-c3cnc4ccc(Oc5ccc6nc(C)[nH]c6c5)c(Cl)c4n3)cn2)CC1 [Compound 39] | 7.00 to 7.70 |  | 7.00 to 7.70 | 6.40 to 7.00 | 7.00 to 7.70
Cc1nc2ccc(Oc3ccc4ncc(-c5cnn(CC6CCN(S(=O)(=O)C(C)C)CC6)c5)nc4c3Cl)cc2[nH]1 [Compound 40] | 7.00 to 7.70 |  | 7.00 to 7.70 | ≤ 6.40 | 7.00 to 7.70
Cc1nc2c(C#N)cc(Oc3ccc4ncc(-c5cnn(CC6CCN(C)CC6)c5)nc4c3Cl)cc2[nH]1 [Compound 41] | 6.40 to 7.00 |  | 6.40 to 7.00 | ≤ 6.40 | 6.40 to 7.00
Cc1nc2ccc(Oc3ccc4ncc(-c5cnn(CC6CCN(S(C)(=O)=O)CC6)c5)nc4c3Cl)cc2[nH]1 [Compound 43] | 7.00 to 7.70 |  | 7.00 to 7.70 | ≤ 6.40 | 7.00 to 7.70
Cc1nc2ccc(Oc3ccc4ncc(-c5cnn(CC6CC6)c5)nc4c3Cl)cc2[nH]1 [Compound 44] | 6.40 to 7.00 |  | 6.40 to 7.00 | ≤ 6.40 | 6.40 to 7.00

More lines, main results first:

pIC50 ([4]; Homo sapiens, SNU-16, 72 h) | pIC50 ([4]; 72 hours) | Compound | pIC50 [1] | pIC50 [2] | pIC50 [3]
7.00 to 7.70 |  | Cc1nc2ccc(Oc3ccc4ncc(-c5cnn(CCO)c5)nc4c3Cl)cc2[nH]1 [Compound 15] | 7.00 to 7.70 | ≤ 6.40 | 7.00 to 7.70
7.00 to 7.70 |  | Cc1nc2ccc(Oc3ccc4ncc(-c5cnn(CC6CCN(C(=O)C(F)(F)F)CC6)c5)nc4c3Cl)cc2[nH]1 [Compound 18] | 7.00 to 7.70 | ≤ 6.40 | 7.00 to 7.70
7.00 to 7.70 |  | Cc1nc2ccc(Oc3ccc4ncc(-c5cnn(CC6CCN(C)C(=O)C6)c5)nc4c3Cl)cc2[nH]1 (stereo not drawn) [Compound 20] | 7.00 to 7.70 | ≤ 6.40 | 7.00 to 7.70
7.00 to 7.70 |  | Cc1nc2ccc(Oc3ccc4ncc(-c5cnn(CC(O)CO)c5)nc4c3Cl)cc2[nH]1 (stereo not drawn) [Compound 22] | 6.40 to 7.00 | ≤ 6.40 | 7.00 to 7.70
> 7.70 |  | Cc1nc2ccc(Oc3ccc4ncc(-c5cnn(CC6CCN(CCO)CC6)c5)nc4c3Cl)cc2[nH]1 [Compound 23] | > 7.70 | 6.40 to 7.00 | > 7.70
> 7.70 |  | CCC(=O)N1CCC(Cn2cc(-c3cnc4ccc(Oc5ccc6nc(C)[nH]c6c5)c(Cl)c4n3)cn2)CC1 [Compound 25] | 7.00 to 7.70 | 6.40 to 7.00 | > 7.70
> 7.70 |  | Cc1nc2ccc(Oc3ccc4ncc(-c5cnn(C6CCN(C)C6)c5)nc4c3Cl)cc2[nH]1 (stereo not drawn) [Compound 26] | 7.00 to 7.70 | 6.40 to 7.00 | > 7.70
6.40 to 7.00 |  | Cc1nc2ccc(Oc3ccc4ncc(-c5cnn(C6CCNC6)c5)nc4c3Cl)cc2[nH]1 (stereo not drawn) [Compound 27] | 7.00 to 7.70 | ≤ 6.40 | 7.00 to 7.70
7.00 to 7.70 |  | Cc1nc2ccc(Oc3ccc4ncc(-c5cnn(CC6CCN(S(=O)(=O)CC#N)CC6)c5)nc4c3Cl)cc2[nH]1 [Compound 28] | 7.00 to 7.70 | 6.40 to 7.00 | 7.00 to 7.70
7.00 to 7.70 |  | Cc1nc2ccc(Oc3ccc4ncc(-c5cn(CC6CCN(C)CC6)nc5C)nc4c3Cl)cc2[nH]1 [Compound 32] | 7.00 to 7.70 | ≤ 6.40 | 7.00 to 7.70
7.00 to 7.70 |  | Cc1nc2ccc(Oc3ccc4ncc(-c5cnn(CC6CCN(S(C)(=O)=O)CC6)c5)nc4c3Cl)cc2n1S(C)(=O)=O [Compound 33] | 6.40 to 7.00 | ≤ 6.40 | 7.00 to 7.70
7.00 to 7.70 |  | Cc1nc2ccc(Oc3ccc4ncc(-c5cnn(CC6CCN(S(=O)(=O)C7CC7)CC6)c5)nc4c3Cl)cc2[nH]1 [Compound 42] | 7.00 to 7.70 | ≤ 6.40 | 7.00 to 7.70
7.00 to 7.70 |  | Cc1nc2ccc(Oc3ccc4ncc(-c5cnn(CC6CCN(C)CC6)c5)nc4c3C)cc2[nH]1 [Compound 45] | 7.00 to 7.70 | 6.40 to 7.00 | 7.00 to 7.70
6.40 to 7.00 |  | COc1cc(Oc2ccc3ncc(-c4cnn(CC5CCN(C)CC5)c4)nc3c2Cl)cc2[nH]c(C)nc12 [Compound 46] | ≤ 6.40 | ≤ 6.40 | 6.40 to 7.00
≤ 6.40 |  | Cc1nc2ccc(Oc3cc4nc(-c5cnn(CC6CCOCC6)c5)cnc4cc3Cl)cc2[nH]1 [Compound 48] | ≤ 6.40 | ≤ 6.40 | ≤ 6.40
≤ 6.40 |  | Cc1nc2ccc(Oc3cc4nc(-c5cnn(CC6CCN(C)CC6)c5)cnc4cc3F)cc2[nH]1 [Compound 49] | ≤ 6.40 | ≤ 6.40 | ≤ 6.40
